11 compounds from Sander's compilation of Henry's law constants (doi:10.1002/etc.5620111109) can be followed below.

The first data set in a line: Henry solubility constant Hcp at 298.15 K (mol/(m3 Pa)). The settings on record: reference: ten Hulscher et al. (1992).
Regarding `Clc1ccc(Cl)c(-c2cc(Cl)ccc2Cl)c1` [2,2',5,5'-tetrachlorobiphenyl], the “Henry solubility constant Hcp” value worked out at 0.042.
With `Clc1ccc(Cl)c(-c2ccccc2)c1` [2,5-dichlorobiphenyl], the “Henry solubility constant Hcp” value worked out at 0.023.
The same measure, in the same setting: the value for `c1ccc2c(c1)cc1ccc3cccc4ccc2c1c34` [benzo[a]pyrene] was 22; that for `c1ccc2c(c1)-c1cccc3c1c-2cc1ccccc13` [benzo[b]fluoranthene] was 15.
On the same count and under the same terms, the same measure for `c1cc2ccc3ccc4ccc5cccc6c(c1)c2c3c4c56` [benzo[ghi]perylene]: 30; for `c1ccc2c(c1)-c1cccc3cccc-2c13` [benzo[jk]fluorene]: 1.1; for `c1ccc2cc3c(cc2c1)-c1cccc2cccc-3c12` [benzo[k]fluoranthene]: 17.
For the compound `c1ccc2c(c1)-c1ccc3ccc4cccc5cc-2c1c3c45` [indeno[1,2,3-cd]pyrene], the “Henry solubility constant Hcp” value is 28.

The nature of another data set: Henry solubility constant Hcp at 293 K (mol/(m3 Pa)). The settings on record: reference: ten Hulscher et al. (1992).
As to `Clc1cc(Cl)c(Cl)c(Cl)c1` [1,2,3,5-tetrachlorobenzene], the “Henry solubility constant Hcp at 293 K” value came out at 0.01.
The same measure, in the same setting: the value for `Clc1cccc(Cl)c1Cl` [1,2,3-trichlorobenzene] was 0.014; that for `Clc1cc(Cl)cc(Cl)c1` [1,3,5-trichlorobenzene] was 0.0052.
